Results published in US10487129B2, “Stabilized insulinotropic peptides and methods of use” (Dana-Farber Cancer Institute, Inc., priority 2010, dated 2019).
Positions of bridges follow the written chain, without caps; N, C: chain ends. Non-standard residues stand in square brackets, D forms with d. Residues, ends and D or L forms follow the SMILES beside them. No end group written: not given here. S5 = C=CCCC[C@](C)(N)C(=O)O; Nle = CCCC[C@H](N)C(=O)O

How the values were obtained:
[1] = Circular dichroism thermal unfolding, 5-83° C.; type: physicochemical
pepsin = pepsin (Sus scrofa, UniProt P00791); experiment: in vitro; type: in vitro ADME; details: pH 2
Procedure: In vitro proteolytic degradation of structured peptides was measured by LC/MS (Agilent 1200) using the following parameters: 20 μL injection, 0.6 mL flow rate, 15 min run time consisting of a gradient of water (0.1% formic acid) to 20-80% acetonitrile (0.075% formic acid) over 10 min, 4 min wash to revert to starting gradient conditions, and 0.5 min post-time. The DAD signal was set to 280 nm with an 8 nm bandwidth and MSD set to scan mode with one channel at (M+2H)/2, +1 mass units and the other at (M+3H)/3, +1 mass units. Integration of each MSD signal yielded areas under the curve of >10^8 counts. Reaction samples were composed of 5 μL peptide in DMSO (1 mM stock) and 195 μL of buffer consisting of 50 mM phosphate buffer pH 7.4 containing 2 mM CaCl2. Upon injection of the 0 hr time point sample, 2 μL of 50 ng/μL chymotrypsin (Sigma) was added and the amount of intact peptide quantitated by serial injection over time. An internal control of acetylated tryptophan carboxamide at a concentration of 100 μM was used to normalize each MSD data point. A plot of MSD area versus time yielded an exponential decay curve and half-lives were determined by nonlinear regression analysis using Prism software (GraphPad). The assay was also performed using trypsin and pepsin in their appropriate buffer conditions.

chymotrypsin [2] = target: T1, chymotrypsin (Bos taurus, UniProt P00766); type: in vitro ADME; set-up: purchased Sigma; details: pH 7
Source text: A major limitation of peptides as therapeutics is their susceptibility to rapid proteolytic degradation. […] One of the potential benefits of a covalent crosslinking strategy to enforce peptide α-helicity is shielding of the vulnerable amide bonds from proteolysis. Because proteases require that peptides adopt an extended conformation to hydrolyze amide bonds, the structural constraint afforded by the hydrocarbon staple can render crosslinked peptides protease-resistant.

chymotrypsin [3] = target: T1, chymotrypsin; experiment: Chymotrypsin proteolysis of gp41-derived HIV-1 fusion inhibitor peptides
Procedure: In vitro proteolytic degradation of structured peptides was measured by LC/MS (Agilent 1200) using the following parameters: 20 μL injection, 0.6 mL flow rate, 15 min run time consisting of a gradient of water (0.1% formic acid) to 20-80% acetonitrile (0.075% formic acid) over 10 min, 4 min wash to revert to starting gradient conditions, and 0.5 min post-time. The DAD signal was set to 280 nm with an 8 nm bandwidth and MSD set to scan mode with one channel at (M+2H)/2, +1 mass units and the other at (M+3H)/3, +1 mass units. […] Reaction samples were composed of 5 μL peptide in DMSO (1 mM stock) and 195 μL of buffer consisting of 50 mM phosphate buffer pH 7.4 containing 2 mM CaCl2. Upon injection of the 0 hr time point sample, 2 μL of 50 ng/μL chymotrypsin (Sigma) was added and the amount of intact peptide quantitated by serial injection over time. An internal control of acetylated tryptophan carboxamide at a concentration of 100 μM was used to normalize each MSD data point. A plot of MSD area versus time yielded an exponential decay curve and half-lives were determined by nonlinear regression analysis using Prism software (GraphPad). The assay was also performed using trypsin and pepsin in their appropriate buffer conditions.

[4] = Circular dichroism melting of gp41 peptides; type: physicochemical; details: circular dichroism melting profile
Procedure: The alpha-helicity of stapled modified polypeptides was compared to their unmodified counterparts by circular dichroism. CD spectra were obtained on an Aviv spectropolarimeter at 20° C. using the following standard measurement parameters: wavelength, 190-260 nm; step resolution, 0.5 nm; speed, 20 nm/sec; accumulations, 10; response, 1 sec; bandwidth, 1 nm; path length, 0.1 cm. The alpha-helical content of each peptide was calculated by dividing the mean residue ellipticity [θ]222obs by the reported [θ]222obs for a model helical peptide (Forood, B., E. J. Feliciano, and K. P. Nambiar, PNAS, 1993. 90(3): p. 838-842; J. Martin Scholtz, Biopolymers, 1991. 31(13): p. 1463-1470; Lawless, M. K., et al., Biochemistry, 1996. 35(42): p. 13697-13708) or using, for example, the Aviv machine using CDNN software developed by Brohm in order to deduce five different secondary structure fractions (helix, parallel and antiparallel beta-sheet, beta-turn and random coil). Protein Engineering, 1992. 5(3); p. 191-195. Thermal stability is assessed by acquiring circular dichroism spectra across a broad temperature range and determining the melting temperatures for each constrained peptide.

[5] = test system: isolated pancreatic islets; experiment: Glucose-stimulated insulin release (GSIS) from isolated pancreatic islets; type: cell-based, mouse; details: 10 nM peptide, 1.67 mM to 16.7 mM glucose, 1 hour at 37° C., insulin ELISA
Procedure: Stock solutions of SAH-Ex and SAH-GLP peptides were generated by dissolving the lyophilized powders in deionized water at 100 μM. The following treatment solutions were made for batch GSIS assays: 1.67 mM glucose, 16.7 mM glucose, 1.67 mM glucose+10 nM peptide, 16.7 mM glucose+10 nM peptide all in 1×KRB buffer, 2 mM CaCl2, 0.05% BSA. Islets isolated from wild-type mouse pancreas were washed 3 times with KRB buffer and 5 islets per experimental tube were incubated in KRB buffer containing 1.67 mM glucose for 30 min at 37° C. Islets were then pelleted and the buffer replaced with the treatment solutions listed above. Each experimental condition was examined in replicates of n=8. After 1 hour incubation at 37° C., islets were pelleted and the supernatants collected for glucose stimulated insulin release measurement. The pellets are solubilized to assess intracellular insulin content to normalize for cell number. Insulin was measured by ELISA using mouse insulin as a standard (Insulin ELISA Kit, cat. 80-INSMS-E01, ALPCO). For the insulin ELISA plots, there is a small increase in the amount of insulin released in response to escalation of the glucose dose from 1.67 mM to 16.7 mM.

pepsin, sequence (P00791 60-385): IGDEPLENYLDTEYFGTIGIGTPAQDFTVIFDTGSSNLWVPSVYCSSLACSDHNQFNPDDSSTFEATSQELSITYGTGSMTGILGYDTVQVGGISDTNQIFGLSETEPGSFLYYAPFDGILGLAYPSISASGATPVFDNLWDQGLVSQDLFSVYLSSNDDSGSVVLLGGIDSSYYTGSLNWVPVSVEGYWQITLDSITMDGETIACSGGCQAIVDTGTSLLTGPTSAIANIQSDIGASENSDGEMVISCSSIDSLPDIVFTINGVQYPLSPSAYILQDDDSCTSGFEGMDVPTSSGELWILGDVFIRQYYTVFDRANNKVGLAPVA

Which “slope of temperature melt line” value [1] does the source give for `CC[C@H](C)[C@H](NC(=O)[C@H](Cc1ccccc1)NC(=O)[C@H](CC(C)C)NC(=O)[C@H](CCCNC(=N)N)NC(=O)[C@@H](NC(=O)[C@H](C)NC(=O)[C@H](CCC(=O)O)NC(=O)[C@H](CCC(=O)O)NC(=O)[C@H](CCC(=O)O)NC(=O)[C@]1(C)CCCC=CCCC[C@](C)(NC(=O)[C@H](CC(=O)O)NC(=O)[C@H](CO)NC(=O)[C@@H](NC(=O)[C@H](Cc2ccccc2)NC(=O)[C@@H](NC(=O)CNC(=O)[C@H](CCC(=O)O)NC(=O)CNC(=O)[C@@H](N)Cc2c[nH]cn2)[C@@H](C)O)[C@@H](C)O)C(=O)N[C@@H](CO)C(=O)N[C@@H](CCCCN)C(=O)N[C@@H](CCC(N)=O)C(=O)N1)C(C)C)C(=O)N[C@@]1(C)CCCC=CCCC[C@@](C)(C(=O)NCC(=O)NCC(=O)N2CCC[C@H]2C(=O)N[C@@H](CO)C(=O)N[C@@H](CO)C(=O)NCC(=O)N[C@@H](C)C(=O)N2CCC[C@H]2C(=O)N2CCC[C@H]2C(=O)N2CCC[C@H]2C(=O)N[C@@H](CO)C(N)=O)NC(=O)[C@H](CCCCN)NC(=O)[C@H](CC(C)C)NC(=O)[C@H](Cc2c[nH]c3ccccc23)NC1=O` (single isomer, unassigned) [SAH-Ex(A, B)] here?
The value was “flatter sloped line”.

And the “enhancement in pepsin resistance compared to the template peptide” value (pepsin)?
Its value is 13 fold.

What about the half-life at 25 μM (pepsin) of the same compound?
The half-life at 25 μM was 2.87 h.

And the “enhancement in chymotrypsin resistance compared to the singly stapled peptides” value (chymotrypsin [2])?
The value was “up to 4 fold”.

What about the “enhancement in chymotrypsin resistance compared to the template peptide” value (chymotrypsin [2]) of the same compound?
The value was 8 fold.

For `CCCC[C@H](NC(=O)[C@H](Cc1c[nH]c2ccccc12)NC(=O)[C@@H](NC(=O)[C@@H](N)CCCC)[C@@H](C)O)C(=O)N[C@@H](CCC(=O)O)C(=O)N[C@@H](Cc1c[nH]c2ccccc12)C(=O)N[C@@H](CC(=O)O)C(=O)N[C@@H](CCCNC(=N)N)C(=O)N[C@@H](CCC(=O)O)C(=O)N[C@H](C(=O)N[C@@H](CC(N)=O)C(=O)N[C@@H](CC(N)=O)C(=O)N[C@@H](Cc1ccc(O)cc1)C(=O)N[C@H](C(=O)N[C@@H](CO)C(=O)N[C@@H](CC(C)C)C(=O)N[C@H](C(=O)N[C@@H](Cc1c[nH]cn1)C(=O)N[C@@H](CO)C(=O)N[C@@H](CC(C)C)C(=O)N[C@H](C(=O)N[C@@H](CCC(=O)O)C(=O)N[C@@H](CCC(=O)O)C(=O)N[C@@H](CO)C(=O)N[C@@H](CCC(N)=O)C(=O)N[C@@H](CC(N)=O)C(=O)N[C@@H](CCC(N)=O)C(=O)N[C@@]1(C)CCCC=CCCC[C@@](C)(C(=O)N[C@@H](CCC(N)=O)C(=O)N[C@@H](CCC(=O)O)C(=O)N[C@@H](CC(C)C)C(=O)N[C@@H](CC(C)C)C(=O)N[C@@H](CCC(=O)O)C(N)=O)NC(=O)[C@H](CC(N)=O)NC(=O)[C@H](CCCCN)NC(=O)[C@H](CCC(=O)O)NC1=O)[C@@H](C)CC)[C@@H](C)CC)[C@@H](C)O)[C@@H](C)CC` [SAH-gp41(626-662)(B)] (H-[Nle]TW[Nle]EWDREINNYTSLIHSLIEESQNQ[S5]EKN[S5]QELLE-NH2; staple 28-32; N-terminus assumed), which half-life (chymotrypsin [3]) is on record?
Its half-life is 1.28 h.

What does the source list for `C=CCCC[C@](C)(NC(=O)[C@H](CC(N)=O)NC(=O)[C@H](CCCCN)NC(=O)[C@H](CCC(=O)O)NC(=O)[C@](C)(CCCC=C)NC(=O)[C@H](CCC(N)=O)NC(=O)[C@H](CC(N)=O)NC(=O)[C@H](CCC(N)=O)NC(=O)[C@H](CO)NC(=O)[C@H](CCC(=O)O)NC(=O)[C@H](CCC(=O)O)NC(=O)[C@@H](NC(=O)[C@H](CC(C)C)NC(=O)[C@H](CO)NC(=O)[C@H](Cc1c[nH]cn1)NC(=O)[C@@H](NC(=O)[C@H](CC(C)C)NC(=O)[C@H](CO)NC(=O)[C@@H](NC(=O)[C@H](Cc1ccc(O)cc1)NC(=O)[C@H](CC(N)=O)NC(=O)[C@H](CC(N)=O)NC(=O)[C@@H](NC(=O)[C@H](CCC(=O)O)NC(=O)[C@](C)(CCCC=C)NC(=O)[C@H](CC(=O)O)NC(=O)[C@H](Cc1c[nH]c2ccccc12)NC(=O)[C@H](CCC(=O)O)NC(=O)[C@](C)(CCCC=C)NC(=O)[C@H](Cc1c[nH]c2ccccc12)NC(=O)[C@@H](NC(=O)[C@@H](N)CCCC)[C@@H](C)O)[C@@H](C)CC)[C@@H](C)O)[C@@H](C)CC)[C@@H](C)CC)C(=O)N[C@@H](CCC(N)=O)C(=O)N[C@@H](CCC(=O)O)C(=O)N[C@@H](CC(C)C)C(=O)N[C@@H](CC(C)C)C(=O)N[C@@H](CCC(=O)O)C(N)=O` [UAH-gp41(626-662)(A,B)] (H-[Nle]TW[S5]EWD[S5]EINNYTSLIHSLIEESQNQ[S5]EKN[S5]QELLE-NH2; N-terminus assumed)?
half-life (chymotrypsin [3]): 0.6 h; protection from chymotrypsin proteolysis, result in words (chymotrypsin [3]): does not confer significant protection; Tm [4]: 27 °C

With “GLP1: Glucagon-like Peptide-1, insulin secretagogue (HAEGTFTSDVSSYLEGQAAKEFIAWLVKGR; ends and bridges not checked; UniProt P01275 98-127, looked up)” as the compound, how does the “glucose-stimulated insulin release (GSIS)” value [5] read?
The value was “substantial increase in GSIS”.
